Measurements taken from US20070010465A1 (priority 2005, published 2007).

Assays:
P-gp = target: T1, P-gp (Homo sapiens, UniProt P08183); test: cellular P-gp function, DiOC2 accumulation assay with flow cytometry on circulating NK cells and leukemic blasts; assay type: in vivo, Patients with AML
T1 construct: Pharmacodynamic assessments of cellular P-gp function were conducted using an accumulation assay with DiOC2 and flow cytometry; endogenous in cells; host or cells: circulating NK cells and leukemic blasts from AML patients
Description: Cytarabine was also administered (100 mg/m^2/day) starting after the first dose of daunorubicin as a continuous intravenous infusion on days 1-7. Blood samples were taken at intervals for pharmacokinetic and pharmacodynamic studies. Pharmacokinetic drug determinations were conducted by HPLC. Pharmacodynamic assessments of cellular P-gp function were conducted using an accumulation assay with DiOC2 and flow cytometry. P-gp function was assessed on circulating natural killer (NK) cells and leukemic blasts. […] Means of 3 patients for each time point are shown.

[1] = several oncolytics, preclinical models; cited from earlier work
[2] = system: acute myelogenous leukemia; conditions: valspodar arm, enrollment halted; cited from earlier work

T1 sequence (P08183 whole entry): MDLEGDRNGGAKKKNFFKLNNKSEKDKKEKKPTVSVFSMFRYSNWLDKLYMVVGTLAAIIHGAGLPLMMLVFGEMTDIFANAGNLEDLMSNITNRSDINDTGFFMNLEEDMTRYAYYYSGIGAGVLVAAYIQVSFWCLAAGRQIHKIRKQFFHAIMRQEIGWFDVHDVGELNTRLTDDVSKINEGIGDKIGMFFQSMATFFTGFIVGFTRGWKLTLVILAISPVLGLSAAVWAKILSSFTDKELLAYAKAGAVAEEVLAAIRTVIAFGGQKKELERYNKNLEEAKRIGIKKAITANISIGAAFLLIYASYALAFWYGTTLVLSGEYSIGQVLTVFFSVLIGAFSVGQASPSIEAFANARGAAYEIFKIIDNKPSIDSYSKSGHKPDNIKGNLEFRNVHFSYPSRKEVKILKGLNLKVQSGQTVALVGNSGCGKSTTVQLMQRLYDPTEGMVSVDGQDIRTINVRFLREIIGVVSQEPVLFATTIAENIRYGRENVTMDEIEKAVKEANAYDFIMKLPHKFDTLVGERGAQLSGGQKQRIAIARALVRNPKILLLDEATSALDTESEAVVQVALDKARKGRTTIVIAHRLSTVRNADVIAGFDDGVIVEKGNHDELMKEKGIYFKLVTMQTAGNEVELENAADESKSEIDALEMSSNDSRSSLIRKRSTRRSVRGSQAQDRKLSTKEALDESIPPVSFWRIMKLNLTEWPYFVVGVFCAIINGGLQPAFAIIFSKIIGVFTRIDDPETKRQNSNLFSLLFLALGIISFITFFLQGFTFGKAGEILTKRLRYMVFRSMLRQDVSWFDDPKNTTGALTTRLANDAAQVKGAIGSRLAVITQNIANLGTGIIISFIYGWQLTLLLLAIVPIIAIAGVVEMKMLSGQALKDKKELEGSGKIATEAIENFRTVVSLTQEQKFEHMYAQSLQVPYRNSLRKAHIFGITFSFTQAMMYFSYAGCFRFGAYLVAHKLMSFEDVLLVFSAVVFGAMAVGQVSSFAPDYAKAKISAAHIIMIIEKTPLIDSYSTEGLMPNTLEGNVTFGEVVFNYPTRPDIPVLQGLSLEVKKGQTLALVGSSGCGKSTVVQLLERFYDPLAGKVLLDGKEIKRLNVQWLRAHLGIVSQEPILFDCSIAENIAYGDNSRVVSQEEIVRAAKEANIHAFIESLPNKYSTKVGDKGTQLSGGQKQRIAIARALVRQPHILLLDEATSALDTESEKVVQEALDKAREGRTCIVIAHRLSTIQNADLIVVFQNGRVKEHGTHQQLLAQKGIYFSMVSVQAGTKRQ

time to potent inhibition of P-gp function after start of zosuquidar infusion (P-gp; 700 mg/day continuous intravenous infusion) [h] | duration of inhibition of P-gp functional activity after zosuquidar infusion was halted (P-gp; after 72 hour infusion) | Structure (SMILES) | pharmacokinetic (PK) interactions with oncolytics [1] | early mortality [2]
≤ 2 | at least 12 hours | O[C@@H](COc1cccc2ncccc12)CN1CCN([C@@H]2c3ccccc3[C@@H]3[C@H](c4ccccc42)C3(F)F)CC1 [Zosuquidar] | minimal | –
– | – | C/C=C/C[C@@H](C)C(=O)[C@H]1C(=O)N[C@@H](C(C)C)C(=O)N(C)CC(=O)N(C)[C@@H](CC(C)C)C(=O)N[C@@H](C(C)C)C(=O)N(C)[C@@H](CC(C)C)C(=O)N[C@@H](C)C(=O)N[C@H](C)C(=O)N(C)[C@@H](CC(C)C)C(=O)N(C)[C@@H](CC(C)C)C(=O)N(C)[C@@H](C(C)C)C(=O)N1C [valspodar] | – | excessive early mortality
